The source of these data is patent publication US10000641B2, “Method and composition for preventing corrosion of metal surfaces” (Ecolab USA Inc., priority 2010, dated 2018).

The nature of data set [1]: Linear Polarisation Resistance (LPR) Bubble test, corrosion rate. The method, then: The corrosion inhibition (CI) performance of compounds and compositions of the invention and the performance of comparative examples was tested by means of Linear Polarisation Resistance (LPR) Bubble test measurements.
In general, the LPR Bubble test method uses a test cell, typically made from glass, which is fitted with a probe containing electrodes which are connected to an electrochemical measurement system and associated software. The cell is also fitted with a gas inlet and frit to allow constant purging with CO2 gas. The cell can be loaded with test fluids, typically brine or a combination of brine and a suitable oil phase. The liquids may be stirred, typically at low or moderate speeds, or may be static. The instantaneous rate of corrosion can be measured throughout the experiment by means of the electrochemical probe which extends into the water phase. Other experiments, such as a cyclic sweep, or cyclic polarisation measurement, can also be performed.
In our experiments, the LPR cells were loaded with 95 parts of water (brine) and 5 parts kerosene. The test temperature was 50° C. in all experiments, while details of the water phase pH values relevant to each water composition are given in this Table. The cells were continuously purged with CO2 gas and a stirring speed of 100 rpm was used.
To perform the test, the electrode was allowed to pre-corrode for 2 hours, after which a test corrosion inhibitor composition was added to the kerosene phase. The test was then continued for a total of approximately 14 hours.

A short description of data set [2]: standard testing procedures for biodegradability.
Data set [3] has as its system Skeletonema costatum. As to the kind of experiment: ISO 10253 1998 water quality marine algal growth inhibition test. It counts as cell-based. The method, then: Toxicity (EC50) was measured by a standard test: ISO 10253 1998 water quality—marine algal growth inhibition test with Skeletonema costatum.
Setting [4] is: Table 5, Brine A, 10 ppm, blends also contain ethoxylated fatty acid ester and Na thiosulfate.
Setting [5] is: Brine B, 50° C., 10 ppm test chemical with sodium thiosulfate.

For orientation: % Inhibition means the relative decrease from the control value, in per cent. Take `CCCCCCCCCC[N+](C)(C)CCCCCCCCCC` [Mixture E]: in data set [1] (setting [4]), the “% Inhibition” value stood at 99.8% and the Final corrosion rate came out at 0.009 mmpy.

Consider `O=C([O-])c1ccccc1.[Na+]` [sodium benzoate], for which the results for the biodegraded entry in data set [2] (after 7 days), in data set [2] (after 14 days) and in data set [2] (after 28 days) were “about 85.5%”, “about 95%” and 100%, respectively.

Na Oleyl amphoacetate: the “Algae toxicity (EC50)” value in data set [3] is 2.0 µg/mL. The “% Inhibition” value in data set [1] (Brine A, 50° C., 10 ppm test chemical with sodium thiosulfate) is given as 96.81%; in data set [1] (setting [5]), greater than 99.99%. Moreover, the Final corrosion rate in data set [1] (Brine A, 50° C., 10 ppm test chemical with sodium thiosulfate, 95:5 brine:kerosene, CO2 purge) is listed as 0.12 mmpy; in data set [1] (setting [5]), 0.00014 mmpy.
